# Test results published in ChEMBL document CHEMBL5696442, “Discovery of type II inhibitors of TGFβ-activated kinase 1 (TAK1) and mitogen-activated protein kinase kinase kinase kinase 2 (MAP4K2)” (J Med Chem, 2015).
# Calls of active or inactive are those of the source. The rule behind the calls is not given here.
# Experiments:
# [1] = target: Mitogen-activated protein kinase kinase kinase 1 (Homo sapiens) (UniProt Q13233); assay: Inhibition of MAP3K1 Lys2 labeling site in human Huh-7 cell lysate at 1 uM by KiNativ Profiling analysis relative to control; type: subcellular
# Chain of Mitogen-activated protein kinase kinase kinase 1 (Homo sapiens) (Q13233 whole entry): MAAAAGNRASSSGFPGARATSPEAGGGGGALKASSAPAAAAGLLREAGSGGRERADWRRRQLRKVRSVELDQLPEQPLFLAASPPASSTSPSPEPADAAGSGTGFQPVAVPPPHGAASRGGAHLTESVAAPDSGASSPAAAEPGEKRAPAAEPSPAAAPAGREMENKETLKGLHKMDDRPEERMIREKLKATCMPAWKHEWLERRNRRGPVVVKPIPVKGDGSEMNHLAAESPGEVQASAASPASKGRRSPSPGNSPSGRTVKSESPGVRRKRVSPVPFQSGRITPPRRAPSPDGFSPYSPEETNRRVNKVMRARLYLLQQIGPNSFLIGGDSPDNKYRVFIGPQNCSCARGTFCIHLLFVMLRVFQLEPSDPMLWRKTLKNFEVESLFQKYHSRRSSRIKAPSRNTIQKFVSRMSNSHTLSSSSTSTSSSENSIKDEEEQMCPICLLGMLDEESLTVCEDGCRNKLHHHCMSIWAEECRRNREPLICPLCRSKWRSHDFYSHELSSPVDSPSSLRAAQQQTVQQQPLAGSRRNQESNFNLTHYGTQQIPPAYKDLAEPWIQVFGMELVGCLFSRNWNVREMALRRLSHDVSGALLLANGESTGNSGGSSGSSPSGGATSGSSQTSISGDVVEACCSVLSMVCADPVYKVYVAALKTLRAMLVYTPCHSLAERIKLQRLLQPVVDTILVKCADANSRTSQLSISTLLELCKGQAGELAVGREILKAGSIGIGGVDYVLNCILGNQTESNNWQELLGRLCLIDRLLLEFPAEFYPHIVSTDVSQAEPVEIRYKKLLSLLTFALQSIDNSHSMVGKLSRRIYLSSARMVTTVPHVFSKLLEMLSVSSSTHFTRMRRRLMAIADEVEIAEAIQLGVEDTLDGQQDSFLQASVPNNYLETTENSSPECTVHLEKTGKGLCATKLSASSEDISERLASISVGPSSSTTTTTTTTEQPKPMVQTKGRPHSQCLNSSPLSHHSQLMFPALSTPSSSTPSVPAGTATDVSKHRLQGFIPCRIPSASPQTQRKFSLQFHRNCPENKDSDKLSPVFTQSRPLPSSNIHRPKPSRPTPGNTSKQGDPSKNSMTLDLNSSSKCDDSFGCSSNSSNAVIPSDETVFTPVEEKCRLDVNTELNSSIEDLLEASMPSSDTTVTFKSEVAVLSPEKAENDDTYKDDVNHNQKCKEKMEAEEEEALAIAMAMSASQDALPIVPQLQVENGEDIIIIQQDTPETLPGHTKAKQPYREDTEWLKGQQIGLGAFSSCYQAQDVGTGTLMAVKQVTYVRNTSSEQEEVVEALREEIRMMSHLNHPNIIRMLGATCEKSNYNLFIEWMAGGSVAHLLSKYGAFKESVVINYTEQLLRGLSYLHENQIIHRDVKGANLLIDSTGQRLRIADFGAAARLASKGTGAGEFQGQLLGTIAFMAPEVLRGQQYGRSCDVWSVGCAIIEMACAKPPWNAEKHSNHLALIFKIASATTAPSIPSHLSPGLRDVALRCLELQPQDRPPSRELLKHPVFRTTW
# [2] = target: Serine-protein kinase ATM (Homo sapiens) (UniProt Q13315); assay: Inhibition of ATM ATP labeling site in human Huh-7 cell lysate at 1 uM by KiNativ Profiling analysis relative to control; type: subcellular
# [3] = target: Calcium/calmodulin-dependent protein kinase type II subunit beta (Homo sapiens) (UniProt Q13554); assay: Inhibition of CaMK2b Lys2 labeling site in human Huh-7 cell lysate at 1 uM by KiNativ Profiling analysis relative to control; type: subcellular
# Chain of Calcium/calmodulin-dependent protein kinase type II subunit beta (Homo sapiens) (Q13554 whole entry): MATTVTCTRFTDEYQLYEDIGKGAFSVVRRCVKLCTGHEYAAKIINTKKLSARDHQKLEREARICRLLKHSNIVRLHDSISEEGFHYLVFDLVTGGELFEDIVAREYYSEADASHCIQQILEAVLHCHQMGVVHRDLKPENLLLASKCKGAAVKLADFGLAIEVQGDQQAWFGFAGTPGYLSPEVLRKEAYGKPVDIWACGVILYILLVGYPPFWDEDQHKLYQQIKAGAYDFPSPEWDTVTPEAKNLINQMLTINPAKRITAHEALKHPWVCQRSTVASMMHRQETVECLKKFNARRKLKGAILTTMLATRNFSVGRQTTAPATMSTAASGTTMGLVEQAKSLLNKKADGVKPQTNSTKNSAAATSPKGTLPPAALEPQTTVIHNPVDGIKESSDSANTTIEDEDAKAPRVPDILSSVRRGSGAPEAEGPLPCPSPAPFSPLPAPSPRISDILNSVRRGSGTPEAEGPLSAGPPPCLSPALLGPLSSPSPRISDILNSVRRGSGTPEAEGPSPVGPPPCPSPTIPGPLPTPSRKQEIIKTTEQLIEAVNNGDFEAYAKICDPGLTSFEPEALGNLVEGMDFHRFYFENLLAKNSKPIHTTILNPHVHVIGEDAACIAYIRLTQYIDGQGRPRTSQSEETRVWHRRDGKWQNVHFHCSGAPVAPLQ
# [4] = target: RAC-beta serine/threonine-protein kinase (Homo sapiens) (UniProt P31751); assay: Inhibition of AKT2 (unknown origin) at 10 uM by Ambit Kinomescan binding assay
# [5] = target: cAMP-dependent protein kinase catalytic subunit PRKX (Homo sapiens) (UniProt P51817); assay: Inhibition of PRKX (unknown origin) at 10 uM by Ambit Kinomescan binding assay
# [6] = target: T1, Mitogen-activated protein kinase kinase kinase 2 (Homo sapiens) (UniProt Q9Y2U5); assay: Inhibition of MAP3K2 Lys1 labeling site harbouring ELAVKQVQFDPDSPETSKEVNALECEIQLLK in human A-375 cells at 0.5 uM by KiNativ Profiling analysis relative to control; type: cell-based
# T1 sequence (whole entry): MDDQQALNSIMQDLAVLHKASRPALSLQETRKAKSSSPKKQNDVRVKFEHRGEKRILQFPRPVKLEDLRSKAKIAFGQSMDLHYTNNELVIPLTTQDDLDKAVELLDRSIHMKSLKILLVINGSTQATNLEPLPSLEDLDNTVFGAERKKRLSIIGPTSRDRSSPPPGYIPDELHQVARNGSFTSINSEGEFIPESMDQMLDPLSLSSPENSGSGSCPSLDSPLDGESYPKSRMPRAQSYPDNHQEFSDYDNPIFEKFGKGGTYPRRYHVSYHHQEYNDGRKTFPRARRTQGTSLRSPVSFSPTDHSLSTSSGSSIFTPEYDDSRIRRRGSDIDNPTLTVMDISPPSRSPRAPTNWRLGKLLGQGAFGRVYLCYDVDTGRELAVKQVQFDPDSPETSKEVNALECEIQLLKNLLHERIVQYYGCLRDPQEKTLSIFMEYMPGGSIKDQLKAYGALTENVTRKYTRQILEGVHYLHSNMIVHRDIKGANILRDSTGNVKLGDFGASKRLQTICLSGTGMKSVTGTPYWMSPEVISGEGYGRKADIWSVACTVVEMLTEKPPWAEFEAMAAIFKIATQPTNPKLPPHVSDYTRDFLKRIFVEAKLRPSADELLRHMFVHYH
# [7] = target: Cyclin-dependent kinase 8/19 (Homo sapiens) (UniProt P49336+Q9BWU1); assay: Inhibition of CDK8/11 K2 labeling site in human Huh-7 cells at 10 uM by KiNativ Profiling analysis relative to control; type: cell-based
# [8] = tested on: Receptor-type tyrosine-protein kinase FLT3 (Homo sapiens), P36888 [K663Q]; assay: Inhibition of FLT3 K663Q mutant (unknown origin) at 10 uM by Ambit Kinomescan binding assay relative to control
# [9] = target: T2, Myotonin-protein kinase (Homo sapiens) (UniProt Q09013); assay: Inhibition of DMPK1 K2 labeling site in human Huh-7 cells at 10 uM by KiNativ Profiling analysis relative to control; type: cell-based
# T2 sequence (whole entry): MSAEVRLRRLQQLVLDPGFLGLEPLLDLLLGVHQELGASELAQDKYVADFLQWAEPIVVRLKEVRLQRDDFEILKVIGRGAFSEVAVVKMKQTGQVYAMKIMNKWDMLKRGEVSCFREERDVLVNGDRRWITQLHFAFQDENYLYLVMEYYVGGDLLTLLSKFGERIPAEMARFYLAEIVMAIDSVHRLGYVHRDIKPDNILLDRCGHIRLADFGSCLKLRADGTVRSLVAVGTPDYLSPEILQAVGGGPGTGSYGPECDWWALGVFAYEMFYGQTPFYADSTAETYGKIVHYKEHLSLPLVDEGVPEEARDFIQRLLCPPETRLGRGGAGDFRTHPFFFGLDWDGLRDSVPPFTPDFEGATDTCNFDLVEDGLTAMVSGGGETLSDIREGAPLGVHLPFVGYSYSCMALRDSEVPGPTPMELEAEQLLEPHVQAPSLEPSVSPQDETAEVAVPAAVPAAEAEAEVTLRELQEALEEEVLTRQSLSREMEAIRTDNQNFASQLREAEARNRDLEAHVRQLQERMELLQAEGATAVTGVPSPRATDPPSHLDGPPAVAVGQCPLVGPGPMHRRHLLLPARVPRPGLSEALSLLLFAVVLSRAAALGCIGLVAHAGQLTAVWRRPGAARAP
# [10] = target: Activated CDC42 kinase 1 (Homo sapiens) (UniProt Q07912); assay: Inhibition of ACK Lys1 labeling site in human A-375 cells at 5 uM by KiNativ Profiling analysis relative to control; type: cell-based
# [11] = target: Mitogen-activated protein kinase kinase kinase 1 (Homo sapiens) (UniProt Q13233); assay: Inhibition of MAP3K1 Lys2 labeling site in human A-375 cells at 5 uM by KiNativ Profiling analysis relative to control; type: cell-based
# [12] = target: T3, Dual specificity mitogen-activated protein kinase kinase 3 (Homo sapiens) (UniProt P46734); assay: Inhibition of MEK3 (unknown origin) at 10 uM by Ambit Kinomescan binding assay
# T3 sequence (whole entry): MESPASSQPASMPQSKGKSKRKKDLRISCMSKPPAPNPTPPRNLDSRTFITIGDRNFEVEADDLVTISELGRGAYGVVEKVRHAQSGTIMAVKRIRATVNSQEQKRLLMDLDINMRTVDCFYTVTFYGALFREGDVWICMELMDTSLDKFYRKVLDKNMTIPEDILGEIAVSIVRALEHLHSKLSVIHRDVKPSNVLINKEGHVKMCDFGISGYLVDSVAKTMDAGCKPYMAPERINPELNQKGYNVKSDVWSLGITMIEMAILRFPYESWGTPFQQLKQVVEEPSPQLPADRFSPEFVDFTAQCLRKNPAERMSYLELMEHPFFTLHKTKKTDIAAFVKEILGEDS
# [13] = target: MAP/microtubule affinity-regulating kinase 3 (Homo sapiens) (UniProt P27448); assay: Inhibition of MARK3 K1 labeling site in human Huh-7 cells at 10 uM by KiNativ Profiling analysis relative to control; type: cell-based
# Chain of MAP/microtubule affinity-regulating kinase 3 (Homo sapiens) (P27448 whole entry, looked up): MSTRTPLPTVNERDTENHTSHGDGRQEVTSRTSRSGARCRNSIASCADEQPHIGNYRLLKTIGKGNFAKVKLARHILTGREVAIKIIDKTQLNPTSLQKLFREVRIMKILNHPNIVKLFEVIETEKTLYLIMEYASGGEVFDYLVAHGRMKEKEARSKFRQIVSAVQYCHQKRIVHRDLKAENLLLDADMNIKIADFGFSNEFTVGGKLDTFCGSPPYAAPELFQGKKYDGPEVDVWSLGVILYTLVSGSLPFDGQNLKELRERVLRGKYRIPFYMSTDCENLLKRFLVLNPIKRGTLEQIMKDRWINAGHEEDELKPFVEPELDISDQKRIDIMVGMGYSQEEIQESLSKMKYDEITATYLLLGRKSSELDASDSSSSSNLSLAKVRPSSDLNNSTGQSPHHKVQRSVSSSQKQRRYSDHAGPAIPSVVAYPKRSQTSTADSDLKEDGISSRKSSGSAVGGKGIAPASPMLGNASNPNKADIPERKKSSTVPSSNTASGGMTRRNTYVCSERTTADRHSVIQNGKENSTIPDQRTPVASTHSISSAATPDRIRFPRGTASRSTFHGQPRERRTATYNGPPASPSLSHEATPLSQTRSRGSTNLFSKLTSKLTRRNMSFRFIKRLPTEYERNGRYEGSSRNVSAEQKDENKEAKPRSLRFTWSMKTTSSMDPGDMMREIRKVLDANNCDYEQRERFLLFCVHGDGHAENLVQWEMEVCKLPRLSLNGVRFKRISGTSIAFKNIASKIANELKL
# [14] = target: Serine/threonine-protein kinase SIK3 (Homo sapiens) (UniProt Q9Y2K2); assay: Inhibition of QSK (unknown origin) at 1 uM by Ambit Kinomescan binding assay relative to control
# Chain of Serine/threonine-protein kinase SIK3 (Homo sapiens) (Q9Y2K2 whole entry, looked up): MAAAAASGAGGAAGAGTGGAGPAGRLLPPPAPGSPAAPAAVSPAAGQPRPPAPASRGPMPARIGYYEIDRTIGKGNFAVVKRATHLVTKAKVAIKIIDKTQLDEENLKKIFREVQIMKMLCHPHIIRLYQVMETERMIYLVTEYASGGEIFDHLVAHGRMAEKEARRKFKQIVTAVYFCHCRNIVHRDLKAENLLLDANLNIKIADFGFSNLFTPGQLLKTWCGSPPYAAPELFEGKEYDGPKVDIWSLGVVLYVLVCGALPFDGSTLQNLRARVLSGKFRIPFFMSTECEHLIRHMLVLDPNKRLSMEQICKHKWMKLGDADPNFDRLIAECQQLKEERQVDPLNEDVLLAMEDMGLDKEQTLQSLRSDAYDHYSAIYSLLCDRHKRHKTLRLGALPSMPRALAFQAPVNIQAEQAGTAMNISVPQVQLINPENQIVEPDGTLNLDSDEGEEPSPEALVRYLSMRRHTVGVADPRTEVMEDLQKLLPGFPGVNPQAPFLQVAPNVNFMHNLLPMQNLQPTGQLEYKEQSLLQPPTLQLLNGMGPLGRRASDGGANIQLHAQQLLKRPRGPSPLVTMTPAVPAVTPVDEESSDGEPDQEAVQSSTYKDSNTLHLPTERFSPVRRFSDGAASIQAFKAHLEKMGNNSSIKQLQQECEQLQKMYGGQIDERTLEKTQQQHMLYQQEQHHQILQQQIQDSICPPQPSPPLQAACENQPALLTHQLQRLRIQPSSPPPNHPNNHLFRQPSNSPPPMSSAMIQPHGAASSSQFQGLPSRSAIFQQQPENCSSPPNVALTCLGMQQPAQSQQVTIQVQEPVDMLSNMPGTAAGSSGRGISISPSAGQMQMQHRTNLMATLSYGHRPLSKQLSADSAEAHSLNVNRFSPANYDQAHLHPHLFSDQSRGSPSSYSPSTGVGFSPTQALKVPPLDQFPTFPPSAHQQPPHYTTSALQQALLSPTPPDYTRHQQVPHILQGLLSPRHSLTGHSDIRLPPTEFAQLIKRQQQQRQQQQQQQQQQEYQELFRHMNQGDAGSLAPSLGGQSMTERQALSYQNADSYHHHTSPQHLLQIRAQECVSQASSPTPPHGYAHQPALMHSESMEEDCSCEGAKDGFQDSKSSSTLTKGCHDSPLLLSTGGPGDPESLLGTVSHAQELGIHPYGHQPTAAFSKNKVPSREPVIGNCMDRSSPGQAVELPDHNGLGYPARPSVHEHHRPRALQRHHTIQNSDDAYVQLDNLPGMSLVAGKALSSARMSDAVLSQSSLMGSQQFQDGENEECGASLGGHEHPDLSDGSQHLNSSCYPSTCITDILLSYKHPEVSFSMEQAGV
# [15] = target: Serine/threonine-protein kinase 38 (Homo sapiens) (UniProt Q15208); assay: Inhibition of NDR1 Lys1 labeling site in human A-375 cells at 0.05 uM by KiNativ Profiling analysis relative to control; type: cell-based
# [16] = target: Ribosomal protein S6 kinase alpha-5 (Homo sapiens) (UniProt O75582); assay: Inhibition of N-terminal RPS6KA5 kinase domain 1 (unknown origin) at 1 uM by Ambit Kinomescan binding assay relative to control
# Chain of Ribosomal protein S6 kinase alpha-5 (Homo sapiens) (O75582 whole entry, looked up, the tested form may be a part): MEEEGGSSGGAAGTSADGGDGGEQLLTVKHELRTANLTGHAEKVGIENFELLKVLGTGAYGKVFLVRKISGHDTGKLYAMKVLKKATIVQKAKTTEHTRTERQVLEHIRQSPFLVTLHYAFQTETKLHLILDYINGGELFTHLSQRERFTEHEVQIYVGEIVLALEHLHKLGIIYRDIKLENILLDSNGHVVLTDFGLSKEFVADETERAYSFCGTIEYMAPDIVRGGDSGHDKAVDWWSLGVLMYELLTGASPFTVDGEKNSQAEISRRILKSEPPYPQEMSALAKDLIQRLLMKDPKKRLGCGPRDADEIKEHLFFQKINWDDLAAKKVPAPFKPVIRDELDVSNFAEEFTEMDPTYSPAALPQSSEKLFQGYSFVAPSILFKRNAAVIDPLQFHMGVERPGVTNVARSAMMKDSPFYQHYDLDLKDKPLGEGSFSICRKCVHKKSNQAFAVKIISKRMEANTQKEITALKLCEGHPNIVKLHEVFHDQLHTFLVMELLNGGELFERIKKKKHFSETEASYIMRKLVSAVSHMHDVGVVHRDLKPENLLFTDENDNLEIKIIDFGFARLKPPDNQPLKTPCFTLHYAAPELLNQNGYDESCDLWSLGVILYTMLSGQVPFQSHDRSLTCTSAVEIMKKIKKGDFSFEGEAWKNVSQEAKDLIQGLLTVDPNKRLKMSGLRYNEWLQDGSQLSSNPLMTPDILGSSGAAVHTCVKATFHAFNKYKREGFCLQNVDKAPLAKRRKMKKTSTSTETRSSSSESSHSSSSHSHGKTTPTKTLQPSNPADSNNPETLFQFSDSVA
smiles,measurement,setting,value
CNc1cc(Oc2cc(C(=O)Nc3cc(N4CCN(C)CC4)cc(C(F)(F)F)c3)ccc2C)ncn1,inhibition,[1],-2.3%
same,inhibition,[2],4.8%
same,inhibition,[3],0.7%
CCN1CCN(Cc2ccc(NC(=O)c3ccc(C)c(Oc4ccnc5[nH]ccc45)c3)cc2C(F)(F)F)CC1,inhibition,[4],inactive
same,inhibition,[5],inactive
same,inhibition,[6],16.9%
same,inhibition,[7],18.3%
same,inhibition,[8],0%
same,inhibition,[9],2.8%
same,inhibition,[10],6.1%
same,inhibition,[11],83.9%
same,inhibition,[12],inactive
same,inhibition,[13],-7.2%
CCN1CCN(Cc2ccc(NC(=O)c3ccc(C)c(/C=C/c4cnc5[nH]ccc5c4OC)c3)cc2C(F)(F)F)CC1,inhibition,[14],100%
same,inhibition,[15],3.2%
same,inhibition,[16],62%
